Reference: patent publication US20140335050A1, “METHODS, COMPOSITIONS, AND KITS FOR THE TREATMENT OF CANCER” (The General Hospital Corporation, priority 2011, published 2014)

Experiments:
MU89 melanoma cell line = experiment: Antibody staining and flow cytometry (intracellular Melan-A/MART-1, gp100, TRP-2; surface MHC Class I/II); format: cell-based, human
Description: (§1) Cells were fixed with 1% formaldehyde, permeabilized with 0.1% saponin, stained with monoclonal antibodies to melanocyte antigens. Antibodies were obtained with specificity for: MART-1 from Vector Labs (Burlingame, Calif.); gp100 HMB45 from DakoCytomation (Carpinteria, Calif.) and then visualized with goat anti-mouse FITC-conjugated secondary antibody from Invitrogen (Fredrick, Md.). The level of EGFP was determined by flow cytometry of unfixed cells that were washed and resuspended in 1×PBS.
(§2) Cells were plated at a density of 1×10^5 in 1 ml of medium in a 24-well plate and cultured for varying times as indicated in results. […] After incubation, cells were collected by trypsinization and then evaluated by flow cytometry.
(§3) Intracellular staining and flow cytometric analyses of cytoplasmic Melan-A/MART-1, and gp100 expression were performed as described previously. Cells were fixed with 1% formaldehyde, permeabilized with 0.1% saponin, stained with monoclonal antibodies to melanocyte antigens. Antibodies were obtained with specificity for: Melan-A/MART-1 from Vector Labs (Burlingame, Calif.); gp100/HMB45 from DakoCytomation (Carpinteria, Calif.) and then visualized with goat anti-mouse FITC-conjugated secondary antibody from Invitrogen (Frederick, Md.). The level of EGFP was determined by flow cytometry of unfixed cells washed and resuspended in 1×PBS. Surface staining of MHC Class I was carried out using the antibody W6/32 on cells harvested with Cell Stripper from MediaTech Inc. (Manassas, Va.) and carried out on ice.
(§4) Cell were seeded at 1×10^6 cells in a T25 flask with 10 ml of media for the 4 day IFN-beta pre-treatments. Cells were then harvested and plated in 24 well plate at 1×10^5 cells per well in 1 ml of media for 3 day treatments.
(§5) For surface staining of HLA Class I and II antigens, cells were harvested using CellStripper™ from Mediatech (Manassas, Va.). All staining steps were performed on ice. Following a first incubation with antibody to Class I (W6/32) or Class II (L243) for 30 minutes. Stained cells were washed twice with cold PBS and then stained with a goat anti-mouse FITC secondary antibody to allow for quantitative analysis by flow cytometry. For evaluation of cytoplasmic antigens, including Melan-A/MART-1 and gp100, cells were first fixed in paraformaldehyde and permeabilized with saponin as previously described. Staining for cytoplasmic antigens was carried out at room temperature (22° C.).

A375 melanoma cell line = experiment: Antibody staining and flow cytometry (intracellular Melan-A/MART-1, gp100, TRP-2; surface MHC Class I); format: cell-based, human
Description: as §1, §2, §3, §4, §5

MUX melanoma cell line = experiment: as above; format: cell-based, human
Description: as §1, §2, §3, §4, §5

U-87 MG glioma cell line = experiment: Antibody staining and flow cytometry (intracellular gp100; surface MHC Class I); format: cell-based, human; conditions: U-87 MG; 3 days; IFN-beta 5000 Units/ml, 17-AEP 0.5, PU-H71 0.3, CCT018159 5.0 μg/ml
Description: as §1, §2, §3

[1] = tested on: B16 murine melanoma cell line; experiment: Antibody staining and flow cytometry (intracellular gp100, TRP-2; surface Class I with H2kb antibody); format: cell-based, mouse; conditions: 3 days, 17-AEP 0.5, PU-H71 0.15, CCT018159 2.5 μg/ml
Description: To further evaluate enhancement of immune recognition of cancer cells by inhibition of Hsp90 function, it was shown that a total of twelve different Hsp90 inhibitors were active in several molecular and cellular assays on a series of cell lines, including eleven human melanomas, the murine B16 melanoma, and two human gliomas. […] The melanomas all express varying levels of differentiation antigens Melan-A/MART-1, gp100 and TRP-2, as well as the MHC-Class I antigen (as evidenced by W6/32 antibody staining) that is required for T cell recognition of the tumor cells. Each of these antigens is enhanced by all of the Hsp90 inhibitors. […] Similar to the human counterparts, the B16 mouse tumor also can be induced to express enhanced antigen levels upon 3-day exposure to each of the Hsp90 inhibitors (Table 16). The mouse H-2 Class I antigen is likewise induced by the Hsp90 inhibitors.
General culture conditions for cell propagation and the origins of most of the melanoma cell lines have been previously described. Melanoma cells were cultured in DMEM with 10% FBS. The glioma cell lines U87 MG and U118 MG were obtained from the American Type Culture Collection (ATCC). The B16 murine melanoma cell line was provided by Dr. Andrew Hurwitz and has been previously described. The T cell receptor (TCR)-negative Jurkat T cell line derivative J.RT3-T3.5 was obtained from ATCC. The construction of the J.RT3-T3.5 cell line expressing a Melan-A/MART-1 specific TCR has been described previously. T cells were cultured in RPMI with 10% FBS. IFN-beta-1a (Avonex) was obtained from Biogen-Idec (Cambridge, Mass.) and reconstituted according to the manufacturer's recommendations. The Hsp90 inhibitor radicicol was purchased from A.G. Scientific (San Diego, Calif.). Novobiocin was ordered from BioMol (Plymouth Meeting, Pa.). 17-DMAG was obtained from LC laboratories (Woburn, Mass.). 17-AEP-AP was purchased from InVivoGen (San Diego, Calif.). […] Gedunin, CCT018159, and celastrol were purchased from Tocris (Ellisville, Mo.). Selleck Chemicals (Houston, Tex.) provided NVP-AUY922 and BIIB021.
Cells were plated at a density of 1×10^5 in 1 ml of medium in a 24-well plate and cultured for varying times as indicated in results. Typically, 3 days of culture in the presence of Hsp90 inhibitors was optimal for the functional studies performed. After incubation, cells were collected by trypsinization and then evaluated by flow cytometry.
as §3

[2] = MU89 (BRAF M/WT, NRAS WT), 3 days, 17-AEP 0.50, CCT018159 10.00, PU-H71 0.30 μg/ml
[3] = MU89, 3 days, IFN-beta 5000 Units/ml, 17-AEP 1.0, PU-H71 0.3, CCT018159 10.0 μg/ml
[4] = 3 days, IFN-beta 5000 Units/ml, 17-AEP 0.5, PU-H71 0.15, CCT018159 2.5 μg/ml
[5] = MUX (BRAF M/M, NRAS WT), 3 days, 17-AEP 0.50, CCT018159 5.00, PU-H71 0.30 μg/ml
[6] = MUX, 3 days, IFN-beta 5000 Units/ml, 17-AEP 1.0, PU-H71 0.3, CCT018159 10.0 μg/ml

CCc1cc(-c2n[nH]c(C)c2-c2ccc3c(c2)OCCO3)c(O)cc1O [CCT018159]
HMB45, level of induction relative to untreated control cells (MU89 melanoma cell line; [2]): 3.92 | MART-1, level of induction relative to untreated control cells (MU89 melanoma cell line; [2]): 3.22 | Class I, fold increase relative to untreated control (MU89 melanoma cell line; [3]): 4.2 fold | Class I, geometric mean of surface staining (W6/32) (MU89 melanoma cell line; [3]): 75 | MART-1, fold increase relative to untreated control (MU89 melanoma cell line; [3]): 3.0 fold | MART-1, geometric mean of intracellular staining (MU89 melanoma cell line; [3]): 99 | TRP-2, fold increase relative to untreated control (MU89 melanoma cell line; [3]): 2.7 fold | TRP-2, geometric mean of intracellular staining (MU89 melanoma cell line; [3]): 252 | gp100, fold increase relative to untreated control (MU89 melanoma cell line; [3]): 2.2 fold | gp100, geometric mean of intracellular staining (MU89 melanoma cell line; [3]): 273 | MHC Class I, geometric mean of surface staining (W6/32) (MU89 melanoma cell line; MU89, 4 day IFN-β pre-treatment (5000 Units/ml), then 3 days with fresh IFN-β and the labelled HSP90 inhibitor (label IFN-β: no inhibitor), 17-AEP 1, PU-H71 0.3, CCT018159 10 mg/ml): 281 | MHC Class I, geometric mean of surface staining (W6/32) (MU89 melanoma cell line; MU89, 4 day IFN-β pre-treatment (5000 Units/ml), then 3 days without IFN-β with the labelled HSP90 inhibitor (label IFN-β: no inhibitor), 17-AEP 1, PU-H71 0.3, CCT018159 10 mg/ml): 232 | MHC Class I, geometric mean of surface staining (W6/32) (MU89 melanoma cell line; MU89, single agent for 3 days, no IFN-β pre-treatment, IFN-β 5000 Units/ml): 73 | MHC Class I, geometric mean of surface staining (W6/32) (MU89 melanoma cell line; MU89, three days, IFN-β 5000 Units/ml): 75 | Class I, fold increase relative to untreated control (A375 melanoma cell line; [4]): 1.9 fold | Class I, geometric mean of surface staining (W6/32) (A375 melanoma cell line; [4]): 70 | MART-1, fold increase relative to untreated control (A375 melanoma cell line; [4]): 2.2 fold | MART-1, geometric mean of intracellular staining (A375 melanoma cell line; [4]): 13 | TRP-2, fold increase relative to untreated control (A375 melanoma cell line; [4]): 2.3 fold | TRP-2, geometric mean of intracellular staining (A375 melanoma cell line; [4]): 37 | gp100, fold increase relative to untreated control (A375 melanoma cell line; [4]): 2.1 fold | gp100, geometric mean of intracellular staining (A375 melanoma cell line; [4]): 32 | MHC Class I, geometric mean of surface staining (W6/32) (A375 melanoma cell line; 4 day IFN-β pre-treatment (5000 Units/ml), then 3 days with fresh IFN-β and the labelled HSP90 inhibitor (label IFN-β: no inhibitor), 17-AEP 0.5, PU-H71 0.15, CCT018159 2.5): 181 | MHC Class I, geometric mean of surface staining (W6/32) (A375 melanoma cell line; 4 day IFN-β pre-treatment (5000 Units/ml), then 3 days without IFN-β with the labelled HSP90 inhibitor (label IFN-β: no inhibitor), 17-AEP 0.5, PU-H71 0.15, CCT018159 2.5): 139 | MHC Class I, geometric mean of surface staining (W6/32) (A375 melanoma cell line; single agent for 3 days, no IFN-β pre-treatment, IFN-β 5000 Units/ml, 17-AEP 0.5, PU-H71 […], CCT018159 2.5): 119 | MHC Class I, geometric mean of surface staining (W6/32) (A375 melanoma cell line; three days, IFN-β 5000 Units/ml, 17-AEP 0.5, PU-H71 […], CCT018159 2.5): 70 | HMB45, level of induction relative to untreated control cells (MUX melanoma cell line; [5]): 1.89 | MART-1, level of induction relative to untreated control cells (MUX melanoma cell line; [5]): 1.64 | Class I, fold increase relative to untreated control (MUX melanoma cell line; [6]): 1.7 fold | Class I, geometric mean of surface staining (W6/32) (MUX melanoma cell line; [6]): 174 | MART-1, fold increase relative to untreated control (MUX melanoma cell line; [6]): 1.7 fold | MART-1, geometric mean of intracellular staining (MUX melanoma cell line; [6]): 22 | TRP-2, fold increase relative to untreated control (MUX melanoma cell line; [6]): 1.0 fold | TRP-2, geometric mean of intracellular staining (MUX melanoma cell line; [6]): 40 | gp100, fold increase relative to untreated control (MUX melanoma cell line; [6]): 1.5 fold | gp100, geometric mean of intracellular staining (MUX melanoma cell line; [6]): 40 | MHC Class I, geometric mean of surface staining (W6/32) (MUX melanoma cell line; MUX, 4 day IFN-β pre-treatment (5000 Units/ml), then 3 days with fresh IFN-β and the labelled HSP90 inhibitor (label IFN-β: no inhibitor), 17-AEP 1, PU-H71 0.3, CCT018159 10 mg/ml): 599 | MHC Class I, geometric mean of surface staining (W6/32) (MUX melanoma cell line; MUX, 4 day IFN-β pre-treatment (5000 Units/ml), then 3 days without IFN-β with the labelled HSP90 inhibitor (label IFN-β: no inhibitor), 17-AEP 1, PU-H71 0.3, CCT018159 10 mg/ml): 397 | MHC Class I, geometric mean of surface staining (W6/32) (MUX melanoma cell line; MUX, single agent for 3 days, no IFN-β pre-treatment, IFN-β 5000 Units/ml, 17-AEP 1 μg/ml, PU-H71 0.3 μg/ml, CCT018159 10 μg/ml): 265 | MHC Class I, geometric mean of surface staining (W6/32) (MUX melanoma cell line; MUX, three days, IFN-β 5000 Units/ml, 17-AEP 1 μg/ml, PU-H71 0.3 μg/ml, CCT018159 10 μg/ml): 174 | Class I, fold increase relative to untreated control (U-87 MG glioma cell line): 1.0 fold | Class I, geometric mean of surface staining (W6/32) (U-87 MG glioma cell line): 28 | gp100, fold increase relative to untreated control (U-87 MG glioma cell line): 2.5 fold | gp100, geometric mean of intracellular staining (U-87 MG glioma cell line): 71 | Class I, fold increase relative to untreated control [1]: 6.8 fold | Class I, geometric mean of surface staining (H2kb) [1]: 16 | TRP-2, fold increase relative to untreated control [1]: 3.9 fold | TRP-2, geometric mean of intracellular staining [1]: 364 | gp100, fold increase relative to untreated control [1]: 5.2 fold | gp100, geometric mean of intracellular staining [1]: 414
